Data on twelve compounds can be found in patent US20250025443A1, “COMPOUNDS AND METHODS FOR TREATING CORONA VIRUSES” (CLEAR CREEK BIO, INC., priority 2021, published 2025).

Like-named read-outs stand apart in the source and are kept apart here.

For the assay, the target named is SARS-CoV-2 Papain-Like Protease (PLpro) (Severe acute respiratory syndrome coronavirus 2 (2019-nCoV) (SARS-CoV-2), UniProt P0DTD1). Nature of the assay: biochemical. The note with it: read-out: PLpro IC50.
[1] abbreviates: PLpro enzymatic fluorescence assay, class symbols.
Where [2] appears, read: SARS-CoV-2 PLpro enzymatic fluorescence assay.

Broadly, the IC50 is the point on the concentration scale where inhibition reaches its midpoint. For `C=Cc1cc(C2(NC(=O)c3cc(OC[C@@H]4CCN4C)c(NC(C)=O)cc3C)CC2)c2cccnc2c1` [Compound 746, (S)-4-Acetamido-2-methyl-5-((1-methylazetidin-2-yl)methoxy)-N-(1-(7-vinylquinolin-5-yl)cyclopropyl)benzamide], under setting [1], the IC50 is < 0.1 µM. Still for that read-out and setting: under `Cc1ccc(OC[C@@H]2CCN2C)cc1C(=O)NC1(c2cc(NCc3ccccc3)cc3ncccc23)CC1` [Compound 747, (S)—N-(1-(7-(Benzylamino)quinolin-5-yl)cyclopropyl)-2-methyl-5-((1-methylazetidin-2-yl)methoxy)benzamide] stands < 0.1 µM. For `C=Cc1cc(C2(NC(=O)c3cc(OCC45CCCN4CCC5)ccc3C)CC2)c2cccnc2c1` [Compound 748, 2-Methyl-5-((tetrahydro-1H-pyrrolizin-7a (5H)-yl)methoxy)-N-(1-(7-vinylquinolin-5-yl)cyclopropyl)benzamide], under setting [2], the IC50 was < 0.1 µM. As to `C=Cc1cc(C2(NC(=O)c3cc(OC45CCCN(CCC4)C5)ccc3C)CC2)c2cccnc2c1` [Compound 749, 5-(1-Azabicyclo[3.3.1]nonan-5-yloxy)-2-methyl-N-(1-(7-vinylquinolin-5-yl)cyclopropyl)benzamide], the IC50 under setting [2] was < 0.1 µM. Take `COc1cc(C2(NC(=O)c3cc(OC[C@@H]4CCN4C)c(O)cc3C)CC2)c2cccnc2c1` [Compound 750, (S)-4-Hydroxy-N-(1-(7-methoxyquinolin-5-yl)cyclopropyl)-2-methyl-5-((1-methylazetidin-2-yl)methoxy)benzamide]: under setting [1], the IC50 was < 0.1 µM. With `Cc1ccc(OC[C@@H]2CCN2C)cc1C(=O)NC1(c2cc(-c3ccc(CN[C@H]4CC[C@@H](O)C4)s3)cc3ncccc23)CC1` [Compound 751, N-(1-(7-(5-((((1S,3R)-3-Hydroxycyclopentyl)amino)methyl)thiophen-2-yl)quinolin-5-yl)cyclopropyl)-2-methyl-5-(((S)-1-methylazetidin-2-yl)methoxy)benzamide], the IC50 under setting [1] is < 0.1 µM.

`Cc1ccc(OC[C@@H]2CCN2C)cc1C(=O)NC1(c2cc(-c3ccc(CNC4CCCC4)s3)cc3ncccc23)CC1` [Compound 752, (S)—N-(1-(7-(5-((Cyclopentylamino)methyl)thiophen-2-yl)quinolin-5-yl)cyclopropyl)-2-methyl-5-((1-methylazetidin-2-yl)methoxy)benzamide]: under setting [1], the IC50 was < 0.1 µM.

As to `Cc1ccc(OC[C@@H]2CCN2C)cc1C(=O)NC1(c2cc(-c3ccc(CO)s3)cc3ncccc23)CC1` [Compound 753, (S)-N-(1-(7-(5-(Hydroxymethyl)thiophen-2-yl)quinolin-5-yl)cyclopropyl)-2-methyl-5-((1-methylazetidin-2-yl)methoxy)benzamide], the IC50 under setting [1] is < 0.1 µM. Take `C=Cc1cc(C2(NC(=O)c3cc(OC[C@@H]4CCN4C)c(O)cc3C)CC2)c2cccnc2c1` [Compound 755, (S)-4-Hydroxy-2-methyl-5-((1-methylazetidin-2-yl)methoxy)-N-(1-(7-vinylquinolin-5-yl)cyclopropyl)benzamide]: the half-maximal inhibitory concentration (IC50) under setting [1] was < 0.1 µM.

As to `Cc1ccc(OC[C@@H]2CCN2C)cc1C(=O)NC1(c2cc(-c3ccc(CN(C)C)s3)cc3ncccc23)CC1` [Compound 756, (S)—N-(1-(7-(5-((Dimethylamino)methyl)thiophen-2-yl)quinolin-5-yl)cyclopropyl)-2-methyl-5-((1-methylazetidin-2-yl)methoxy)benzamide], the IC50 under setting [1] was < 0.1 µM. Still for that read-out and setting: in the case of `C=Cc1cc(C2(NC(=O)c3cc(O[C@H](C)[C@@H]4CCN4C)ccc3C)CC2)c2cccnc2c1` [Compound 758, 2-Methyl-5-((R)-1-((S)-1-methylazetidin-2-yl)ethoxy)-N-(1-(7-vinylquinolin-5-yl)cyclopropyl)benzamide] it was < 0.1 µM; in that of `Cc1ccc(OC[C@@H]2CCN2C)cc1C(=O)NC1(c2cc(NCC(F)(F)F)cc3ncccc23)CC1` [Compound 759, (S)-2-Methyl-5-((1-methylazetidin-2-yl)methoxy)-N-(1-(7-((2,2,2-trifluoroethyl)amino)quinolin-5-yl)cyclopropyl)benzamide], < 0.1 µM.
